{"source": "patent US6429222B2", "about": "“1-(p-thienylbenzyl)imidazoles as agonists of angiotensin (1-7) receptors, processes for their preparation, their use, and pharmaceutical preparations comprising them” (priority 1999, dated 2002)", "key": {"[1]": {"tested_on": "isolated, working rat hearts", "assay": "Test 3: Isolated, working rat hearts (Langendorff), coronary flow", "parameters": "species or system Wistar-Kyoto rats", "conditions": "10^−6 mol/l; for Coronary flow: treated hearts, n=4", "from_the_text": "Pharmacol. 8 (Suppl. 10) (1986) S91-S99.\nTest 3: Isolated, working rat hearts\nIsolated hearts of Wistar-Kyoto rats (280-300 g body weight) are perfused with a constant perfusion pressure of 60 mmHg according to the method of Langendorff using an oxygen-saturated (95% O2, 5% CO2), nonrecirculating, modified Krebs-Henseleit buffer solution (118 mmol/l of NaCl, 4.7 mmol/l of KCl, 2.5 mmol/l of CaCl2, 1.6 mmol/l of MgSO4, 24.9 mmol/l of NaHCO3, 1.2 mmol/l of KH2PO4, 5.5 mmol/l of glucose, and 2.0 mmol/l of sodium pyruvate). For the measurement of the coronary flow, a catheter having an electromagnetic measuring head placed in the pulmonary artery was used. After a 15-minute equilibration period, the heart is converted into the working mode, in which a preload of 15 mmHg and an afterload of 60 mmHg is set. The working load of the heart remains constant during the entire test time of 90 minutes. Flow and pressure signals for the analysis are recorded by means of a PLUGSYS measuring system (Hugo Sachs Elektronik). The analysis of the data is carried out at a collection frequency of 500 Hz, averaged every 2 seconds, using the software Aquire Plus VI.21f (PO-NE-MAH)."}, "[2]": {"tested_on": "human platelet-rich plasma", "assay": "Test 4: Collagen-induced platelet aggregation in human platelet-rich plasma", "format": "cell-based", "conditions": "collagen + 30 μM compound, 37° C., 20 min incubation, n=6; collagen alone 92±2.7%", "protocol": "The action of compounds of formula (I) on collagen-induced platelet aggregation was investigated in human platelet-rich plasma, which is described, for example, in G.V. Born et al., Nature (1962).\nHuman platelet-rich plasma (PRP) from 6 blood donors was incubated with the test compound at 37° C. for 20 min, then activated with collagen, and the maximal aggregation of the platelets was quantified in % via light transmission."}}}
{"smiles": "CCCCOC(=O)NS(=O)(=O)c1sc(CC(C)C)cc1-c1ccc(Cn2c(-c3ccccc3)nc(OC)c2C=O)cc1", "note": "[Example 2, 5-Formyl-4-methoxy-2-phenyl-1-[[4-[2-(n-butyloxycarbonylsulfonamido)-5-isobutyl-3-thienyl]phenyl]methyl]imidazole]", "values": [{"measurement": "heart rate", "setting": "[1]; during the entire experiment", "value": "unchanged"}, {"measurement": "Coronary flow", "setting": "[1]; time 0 min", "value": "8.92 ± 0.68", "unit": "mL/min"}, {"measurement": "Coronary flow", "setting": "[1]; time 5 min", "value": "11.29 ± 0.90", "unit": "mL/min"}, {"measurement": "Coronary flow", "setting": "[1]; time 10 min", "value": "12.17 ± 0.74", "unit": "mL/min"}, {"measurement": "Coronary flow", "setting": "[1]; time 15 min", "value": "12.22 ± 0.10", "unit": "mL/min"}, {"measurement": "platelet aggregation", "setting": "[2]", "value": "52±5.7", "unit": "% aggregation"}]}
